Laboratory results taken from ChEMBL document CHEMBL5360649, “Potential Broad-Spectrum Antimicrobial, Wound Healing, and Disinfectant Cationic Peptide Crafted from Snake Venom” (J Med Chem, 2023).
Active and inactive are the calls of the source. The rule behind the calls is not given here.

How the values were obtained:
Staphylococcus aureus [1] = experiment: Antibacterial activity against methicillin resistant Staphylococcus aureus assessed as inhibition of bacterial growth at 1.25 to 40 uM by microtiter plate reader analysis; type: functional, organism-based; details: dose 1.25-40 µM, time 0.5-8.5 hrs, TDE = time-dependent effect
Pseudomonas aeruginosa [2] = experiment: Antibiofilm activity against Pseudomonas aeruginosa assessed as clearance of preformed biofilm at 1 times of MIC incubated for 24 hrs by CV staining based analysis relative to control; type: functional
Klebsiella pneumoniae [3] = experiment: Induction of morphological changes in carbapenem resistant Klebsiella pneumoniae ATCC BAA-1705 assessed as inhibition of cell division by measuring filamented cells at MIC concentration incubated for 60 mins by SEM analysis; type: functional, organism-based
Pseudomonas aeruginosa [4] = experiment: Antibacterial activity against Pseudomonas aeruginosa assessed as inhibition of bacterial growth incubated for 0.5 to 8.5 hrs by microtiter plate reader analysis; type: functional, organism-based; details: dose 1.25-40 µM, time 0.5-8.5 hrs
Klebsiella pneumoniae [5] = experiment: Antibacterial activity against carbapenem resistant Klebsiella pneumoniae ATCC BAA-1705 assessed as inhibition of bacterial growth incubated for 8 hrs at 1.25 to 40 uM by microtiter plate reader analysis; type: functional, organism-based; details: dose 1.25-40 µM
Staphylococcus aureus [6] = experiment: Antibiofilm activity against methicillin-resistant Staphylococcus aureus in the presence of Cl-; type: functional, organism-based
Escherichia coli [7] = experiment: Induction of morphological changes in Escherichia coli at MIC concentration incubated for 6 hrs by SEM analysis; type: functional, organism-based
Cell membrane [8] = experiment: Induction of outer membrane permeabilization in Klebsiella pneumoniae at 0.5 to 1 times of MIC incubated for 5 to 20 mins by fluorescence based NPN uptake assay; type: subcellular; details: time 5-20 min
[9] = Stability in human serum assessed as half-life at 1 mM by HPLC analysis; type: ADME, cell-free
RAW264.7 = experiment: Antiinflammatory activity in mouse RAW264.7 cells assessed as increase in TGF-beta1 expression at 10 uM incubated for 24 hrs by radioimmunoprecipitation based dot-plot analysis; type: functional, cell-based
Staphylococcus aureus [10] = experiment: Antibiofilm activity in methicillin-resistant Staphylococcus aureus assessed as biofilm clearance incubated for 24 hrs by Congo red dye based fluorescence analysis; type: functional, organism-based
Escherichia coli [11] = experiment: Induction of morphological changes in Escherichia coli assessed as decrease in legible cells at MIC concentration incubated for 6 hrs by AFM analysis; type: functional, organism-based
Escherichia coli [12] = experiment: Induction of morphological changes in Escherichia coli assessed as cellular destruction at MIC concentration incubated for 6 hrs by AFM analysis; type: functional, organism-based
Pseudomonas aeruginosa [13] = experiment: Antibacterial activity against patient-derived Pseudomonas aeruginosa assessed as inhibition of bacterial growth at 25 to 100 uM incubated overnight by spotting assay; type: functional, organism-based; details: dose 25-100 µM
[14] = Cytotoxicity against human MCF7 cells assessed as cell viability at 25 uM incubated for 24 hrs by MTT assay relative to control; type: toxicity, cell-based; details: read-out: Activity
Klebsiella pneumoniae [15] = experiment: Antibiofilm activity against Klebsiella pneumoniae assessed as biofilm eradication at 1 times of MIC incubated for 24 hrs by CV staining based analysis relative to control; type: functional
Staphylococcus aureus [16] = experiment: Antibacterial activity against methicillin resistant Staphylococcus aureus assessed as inhibition of bacterial growth at 1.25 to 40 uM incubated for 8 hrs by microtiter plate reader analysis; type: functional, organism-based; details: dose 1.25-40 µM
Klebsiella pneumoniae [17] = experiment: Antibacterial activity against Klebsiella pneumoniae assessed as induction of cellular damage at MIC concentration incubated for 30 mins by SYTO9/PI staining based fluorescence microscopic analysis; type: functional, organism-based
[18] = Cytotoxicity against human MCF7 cells assessed as cell viability at 12.5 uM incubated for 24 hrs by MTT assay relative to control; type: toxicity, cell-based; details: read-out: Activity
[19] = Cytotoxicity against NMDF cells assessed as viable cells at 12.5 uM incubated for 24 hrs by MTT assay relative to control; type: toxicity, cell-based; details: mouse, read-out: Activity
Staphylococcus aureus [20] = experiment: Antibiofilm activity against preformed biofilm in methicillin-resistant Staphylococcus aureus assessed as decrease in metabolic activity at MIC incubated overnight by MTT assay; type: functional, organism-based
[21] = […] activity against LPS-induced human PBMC assessed as increase in cell number by measuring rise in cell proliferation percentage at 12.5 uM measured after 12 hrs by lymphocyte proliferation assay (12 hrs incubated Rvb = 478.774%); type: functional
Klebsiella pneumoniae [22] = experiment: Antibiofilm activity against Klebsiella pneumoniae assessed as increase in dead cell proportion at 0.5 times of MIC incubated overnight by SYTO9/PI staining based fluorescence analysis; type: functional, organism-based
Staphylococcus aureus [23] = experiment: Antibiofilm activity against preformed biofilm in methicillin-resistant Staphylococcus aureus assessed as decrease in cell viability at 0.5 times of MIC incubated overnight by MTT assay relative to control; type: functional
Staphylococcus aureus [24] = experiment: Antibiofilm activity in methicillin-resistant Staphylococcus aureus assessed as biofilm disintegration at 0.5 to 1 times of MIC incubated for 24 hrs by Congo red dye based fluorescence analysis; type: functional, organism-based
Klebsiella pneumoniae [25] = experiment: Antibiofilm activity against Klebsiella pneumoniae assessed as clearance of preformed biofilm at 0.5 times of MIC incubated for 24 hrs by CV staining based analysis relative to control; type: functional
Escherichia coli [26] = experiment: Antibacterial activity against Escherichia coli ATCC CRM-11229 assessed as inhibition of bacterial growth at 25 to 100 uM incubated overnight by spotting assay; type: functional, organism-based; details: dose 25-100 µM
Klebsiella pneumoniae [27] = experiment: Antibiofilm activity against Klebsiella pneumoniae assessed as biofilm disintegration at 0.5 to 1 times of MIC incubated for 24 hrs by Congo red dye based fluorescence analysis; type: functional, organism-based
Escherichia coli [28] = experiment: Bactericidal activity against Escherichia coli ATCC CRM-11229 assessed as reduction in bacterial growth incubated for 24 hrs by Mueller Hinton Agar based plate analysis; type: functional
[29] = Stability in human serum assessed as intact peptide remaining at 1 mM measured after 4 hrs by HPLC analysis; type: ADME, cell-free; details: read-out: Stability
Klebsiella pneumoniae [30] = experiment: Induction of morphological changes in carbapenem resistant Klebsiella pneumoniae ATCC BAA-1705 assessed as cellular destruction at MIC concentration incubated for 6 hrs by SEM analysis; type: functional, organism-based
Cell membrane [31] = experiment: Induction of cytoplasmic membrane depolarization in methicillin-resistant Staphylococcus aureus assessed as increase in fluorescence intensity at 0.5 to 1 times of MIC by DiSC3-5 dye based fluorescence method; type: subcellular
Escherichia coli [32] = experiment: Induction of morphological changes in Escherichia coli at MIC concentration incubated for 6 hrs by AFM analysis; type: functional, organism-based
Staphylococcus aureus [33] = experiment: Bactericidal activity against patient-derived Staphylococcus aureus assessed as reduction in bacterial growth incubated for 24 hrs by Mueller Hinton Agar based plate analysis; type: functional
Escherichia coli [34] = experiment: Induction of resistance development in Escherichia coli assessed as change in MIC at 0.5 times of MIC incubated with compound for 12 hrs followed by replacement with fresh medium for 12 hrs and measured after 20 repeated cycles; type: functional, organism-based; details: time 240.0 hrs
PBMC = experiment: Effect on cell viability in human PBMC assessed as increase in cell number by measuring rise in cell proliferation percentage at 12.5 uM measured after 12 hrs by lymphocyte proliferation assay (12 hrs incubated Rvb = 478.774%); type: toxicity, cell-based
Cell membrane [35] = experiment: Induction of inner membrane permeabilization in Pseudomonas aeruginosa assessed as increase in fluorescence at 0.5 to 1 times of MIC incubated for 60 mins by PI staining based fluorescence analysis; type: subcellular
Staphylococcus aureus [36] = experiment: Antibiofilm activity against methicillin-resistant Staphylococcus aureus assessed as increase in dead cell proportion at MIC incubated overnight by SYTO9/PI staining based fluorescence analysis; type: functional, organism-based

With H-FLPIIKWVKKFFWRWR-OH the Activity (Staphylococcus aureus [1]) was “Tde”, the Activity (Pseudomonas aeruginosa [2]) was about 56% and the Activity (Klebsiella pneumoniae [3]) was “Active”. The Activity (Pseudomonas aeruginosa [4]) was “Dose-Dependent Effect”, the Activity (Klebsiella pneumoniae [5]) was “Active” and the Activity (Staphylococcus aureus [6]) was “Active”. For the same substance, the Activity (Escherichia coli [7]) was “Active”, the Activity (Cell membrane [8]) was “Active” and the half-life at 1000 µM [9] was about 24 h. The Activity (RAW264.7) was “Active”, the Activity (Staphylococcus aureus [10]) was “Dose-Dependent Effect” and the Activity (Escherichia coli [11]) was “Active”. The Activity (Escherichia coli [12]) was “Active”, the Activity (Pseudomonas aeruginosa [13]) was “Active” and the viability at 24 h, 25 µM [14] was 63.8%. The Activity (Klebsiella pneumoniae [15]) was “<=78.28%”, the Activity (Staphylococcus aureus [16]) was “Active” and the Activity (Klebsiella pneumoniae [17]) was “Active”. The viability at 24 h, 12.5 µM [18] was 77%, the viability at 24 h, 12.5 µM [19] was over 85% and the Activity (Staphylococcus aureus [20]) was “Active”. For the same substance, the Activity [21] was 52.357%, the Activity (Klebsiella pneumoniae [22]) was “inactive” and the Activity (Staphylococcus aureus [23]) was 62.7%. For the same substance, the Activity (Staphylococcus aureus [24]) was “Active”, the Activity (Klebsiella pneumoniae [25]) was about 52% and the Activity (Escherichia coli [26]) was “Active”. For the same substance, the Activity (Klebsiella pneumoniae [27]) was “Active”, the MBC (Escherichia coli [28]) was 4.5 µM and the remaining at 4 h, 1000 µM [29] was 82.6%. For the same substance, the Activity (Klebsiella pneumoniae [30]) was “Active”, the Activity (Cell membrane [31]) was “Active” and the Activity (Escherichia coli [32]) was “Active”. For the same substance, the MBC (Staphylococcus aureus [33]) was 8 µM, the Activity (Escherichia coli [34]) was “inactive” and the Activity (PBMC) was 55.188%. For the same substance, the Activity (Cell membrane [35]) was “Active” and the Activity (Staphylococcus aureus [36]) was “Active”.
